Data from ChEMBL document CHEMBL1201862, “PubChem BioAssay data set” (2004).
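Dose response: 5 concentrations. Exposure: 48 h. Format: 96-well plates. Endpoint: linear interpolation; highest concentration if not reached. Here, GI50 denotes the concentration required for 50% inhibition of growth.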 The source made the active and inactive calls. Rule as the data show it: active = GI50 up to about 1.1 µM and inactive = higher.

Legend:
Assay in all cases: NCI-60 cell line screen, 48 h
A498 = tested on: A498
CAKI-1 = tested on: CAKI-1
HCT-15 = tested on: HCT-15
HOP-62 = tested on: HOP-62
Hs-578T = tested on: Hs-578T
K562 = tested on: K562
M14 = tested on: M14
MCF7 = tested on: MCF7
MOLT-4 = tested on: MOLT-4
NCI-H226 = tested on: NCI-H226
NCI/ADR-RES = tested on: NCI/ADR-RES
RPMI-8226 = tested on: RPMI-8226
SF-268 = tested on: SF-268
SNB-19 = tested on: SNB-19
SNB-75 = tested on: SNB-75
SR = tested on: SR
HOP-92 = tested on: HOP-92
SF-295 = tested on: SF-295
SK-MEL-2 = tested on: SK-MEL-2
TK-10 = tested on: TK-10

Compound | GI50 (A498) | GI50 (CAKI-1) | GI50 (HCT-15) [µM] | GI50 (HOP-62) | GI50 (Hs-578T) | GI50 (K562) | GI50 (M14) | GI50 (MCF7) | GI50 (MOLT-4) | GI50 (NCI-H226) | GI50 (NCI/ADR-RES) | GI50 (RPMI-8226) | GI50 (SF-268) | GI50 (SNB-19) | GI50 (SNB-75) | GI50 (SR) | GI50 (HOP-92) | GI50 (SF-295) | GI50 (SK-MEL-2) | GI50 (TK-10)
C=C1CCC2CC1C(C(=O)c1c[nH]c3ccccc13)=NC2(C)C (stereo not given) | > 100 µM (inactive) | > 100 µM (inactive) | > 100 | > 100 µM (inactive) | > 100 µM (inactive) | 92.7 µM (inactive) | > 100 µM (inactive) | > 100 µM (inactive) | > 100 µM (inactive) | > 100 µM (inactive) | > 100 µM (inactive) | 91 µM (inactive) | > 100 µM (inactive) | > 100 µM (inactive) | > 100 µM (inactive) | > 100 µM (inactive) |  |  |  | 
CC(=O)NS(=O)(=O)c1ccc(NCc2cccc3c(=O)c4ccc(Cl)cc4oc23)cc1 | 41.9 µM (inactive) | 20.5 µM (inactive) | 7.76 | 39.1 µM (inactive) | 25.4 µM (inactive) | 6.14 µM (inactive) | 41.1 µM (inactive) | 8.3 µM (inactive) | 11.5 µM (inactive) | 93.3 µM (inactive) | 31.6 µM (inactive) | 11.2 µM (inactive) | 30.8 µM (inactive) | 57.3 µM (inactive) | 64 µM (inactive) |  | 16.6 µM (inactive) | 51.4 µM (inactive) | 46 µM (inactive) | > 63.4 µM (inactive)
Cc1cc(N(CCC#N)CCC#N)ccc1C(/N=N\c1ccc([N+](=O)[O-])cc1)=N\NC(=O)c1cc(Cl)ccc1O | 26.7 µM (inactive) | 40.7 µM (inactive) | 29.6 | 26.2 µM (inactive) | 15.7 µM (inactive) | 35.2 µM (inactive) | 42 µM (inactive) | 22.6 µM (inactive) | 20.3 µM (inactive) | 25.5 µM (inactive) | 28.7 µM (inactive) | > 100 µM (inactive) | 19.9 µM (inactive) | 34.7 µM (inactive) | > 100 µM (inactive) | 24.3 µM (inactive) |  | 29.1 µM (inactive) | 34.4 µM (inactive) | 46.1 µM (inactive)
CC(=O)OCCCCn1nncc1Cn1ccc(=O)n(Cc2cnnn2CCCCOC(C)=O)c1=O | > 100 µM (inactive) | > 100 µM (inactive) | > 100 | > 100 µM (inactive) | > 100 µM (inactive) |  | > 100 µM (inactive) | > 100 µM (inactive) | > 100 µM (inactive) | > 100 µM (inactive) | > 100 µM (inactive) | > 100 µM (inactive) | > 100 µM (inactive) | > 100 µM (inactive) | > 100 µM (inactive) |  | > 100 µM (inactive) | > 100 µM (inactive) | > 100 µM (inactive) | > 100 µM (inactive)
COC(=O)Nc1nc2cc(NS(=O)(=O)c3cccs3)ccc2[nH]1 | 28 µM (inactive) | 30.4 µM (inactive) | 14.3 | 26.4 µM (inactive) | 10.4 µM (inactive) | 5.53 µM (inactive) | 21.5 µM (inactive) | 17.8 µM (inactive) | 13.6 µM (inactive) | 32.2 µM (inactive) | 25.1 µM (inactive) | 35.1 µM (inactive) | 38.3 µM (inactive) | 23.2 µM (inactive) | 20.7 µM (inactive) |  | 16.3 µM (inactive) | 24.9 µM (inactive) | 76.6 µM (inactive) | 25.9 µM (inactive)
O=c1[nH]nc(Cc2ccccc2)n1/N=C/c1ccc([N+](=O)[O-])o1 | 7.41 µM (inactive) | 3.11 µM (inactive) | 2.08 | 3.08 µM (inactive) | 1 µM (active) | 4.09 µM (inactive) | 2.24 µM (inactive) | 1.86 µM (inactive) | 2.42 µM (inactive) | 12.5 µM (inactive) | 2.75 µM (inactive) | 2.63 µM (inactive) | 2.59 µM (inactive) | 4.83 µM (inactive) | 3.3 µM (inactive) |  | 3.03 µM (inactive) | 7.62 µM (inactive) | 3.56 µM (inactive) | 4.36 µM (inactive)
Cc1ccc(C2=CC(=O)OC(C[P+](c3ccccc3)(c3ccccc3)c3ccccc3)(c3ccccc3)O2)cc1 (stereo not given) | 15.1 µM (inactive) | 15.4 µM (inactive) | 20 | 19.5 µM (inactive) | 18.2 µM (inactive) | 23.3 µM (inactive) | 17 µM (inactive) | 21.1 µM (inactive) | 21.3 µM (inactive) | 27.1 µM (inactive) | 19 µM (inactive) | 17.5 µM (inactive) | 18.5 µM (inactive) | 17 µM (inactive) | 21.3 µM (inactive) | 15.6 µM (inactive) |  | 26.9 µM (inactive) | 15.2 µM (inactive) | 20.1 µM (inactive)
Cc1ccc([S+]([O-])CC(CF)OCn2cc(C)c(=O)[nH]c2=O)cc1 (stereo not given) |  | > 100 µM (inactive) | > 100 | > 100 µM (inactive) | > 100 µM (inactive) |  | > 100 µM (inactive) | > 100 µM (inactive) | > 100 µM (inactive) | > 100 µM (inactive) | > 100 µM (inactive) | > 100 µM (inactive) | > 100 µM (inactive) | > 100 µM (inactive) | > 100 µM (inactive) | > 100 µM (inactive) | > 100 µM (inactive) | > 100 µM (inactive) | > 100 µM (inactive) | > 100 µM (inactive)
Cc1cc2c(cc1C(=O)c1ccc(N)cc1)OCO2 |  | 24.5 µM (inactive) | 30.4 | 58.7 µM (inactive) | 48 µM (inactive) | 24.9 µM (inactive) | 29.4 µM (inactive) | 20.1 µM (inactive) | 40.1 µM (inactive) |  | 25.1 µM (inactive) | 36.3 µM (inactive) | 31.2 µM (inactive) | 57.7 µM (inactive) |  | 5.08 µM (inactive) | 33.2 µM (inactive) | 21.9 µM (inactive) | 23.9 µM (inactive) | 28.2 µM (inactive)
Oc1ccc(Cc2cc(Cc3ccc(O)cc3)cc(Cc3ccc(O)cc3)c2)cc1 | > 50 µM (inactive) |  | > 50 | > 50 µM (inactive) | > 50 µM (inactive) | > 50 µM (inactive) | > 50 µM (inactive) | > 50 µM (inactive) | > 50 µM (inactive) | > 50 µM (inactive) | > 50 µM (inactive) | > 50 µM (inactive) | > 50 µM (inactive) | > 50 µM (inactive) | > 50 µM (inactive) | > 50 µM (inactive) |  | > 50 µM (inactive) | > 50 µM (inactive) | > 50 µM (inactive)
COc1ccc(-n2c(C)nc3ccc(NC(=S)Nc4ccccc4)cc3c2=O)cc1 | > 100 µM (inactive) | > 100 µM (inactive) | 76.2 | > 100 µM (inactive) | > 100 µM (inactive) | 51.6 µM (inactive) |  | 43.2 µM (inactive) | 32.1 µM (inactive) | 43.2 µM (inactive) | > 100 µM (inactive) | 28.6 µM (inactive) | > 100 µM (inactive) | > 100 µM (inactive) | > 100 µM (inactive) | 60.7 µM (inactive) |  | > 100 µM (inactive) | 56.1 µM (inactive) | > 100 µM (inactive)
